In US10328056B2, “Priming of pancreatic tumor cells and cancer stem cells to TRAIL-induced apoptosis” (Alliance of Cardiovascular Researchers, priority 2014, dated 2019):

Columns and labels:
IL-8, CXCR1, DcR1, c-Jun = test: qRT-PCR of IL-8 axis genes; type: cell-based; details: IL-8 treatment
Procedure: (§1) For total RNA extraction, cells were homogenized with TRIzol (Invitrogen). Phase separation was performed by the addition of chloroform and subsequent centrifugation steps. Aqueous phase of samples was collected, and RNA was precipitated by isopropyl alcohol. After washing, RNA was redissolved in DEPC-treated water, and RNA quality and quantity were measured with a Nanodrop ND-1000 Spectrophotometer (Thermo Scientific). For cDNA synthesis, the iScript Reverse Transcription Supermix (Bio-Rad) was used according to the manufacturer's protocol, and the reaction mix was incubated in a thermal cycler (Bio-Rad MyIQ Single-Color RT-PCR Detection System iCycler) with the following protocol: priming (5 minutes at 25° C.), reverse transcription (30 minutes at 42° C.), and reverse transcription inactivation (5 minutes at 85° C.). qRT-PCR was performed using iQ SYBR Green Supermix (Bio-Rad) according to the following protocol: initial denaturation and enzyme activation (1 cycle at 95° C. for 3 minutes), denaturing (40 cycles at 95° C. for 15 seconds) with annealing and extension (40 cycles at 55° C. for 30 seconds), and melting curve (1 cycle at 55° C.-95° C. in […] for 30 seconds). The Ct (cycle threshold) value was measured in absolute quantification (of cycles of amplification) and compared to β-actin, which served as a housekeeping gene.

L3.6pl cells = test: MTT cell viability assay; type: cell-based; details: compared to TRAIL alone
Procedure: (§2) Cells were seeded in a 96-well plate at a density of 4000 to 5000 cells per well (70%-80% confluence) in triplicate. Non-adherent cells were washed with PBS, and different substrate dilutions were added. After 24 hours, 3-(4,5-dimethylthiazol-2-yl)-2,5-diphenyltetrazolium bromide (MTT) assay (Roche, Mannheim, Germany) was performed according to the manufacturer's instructions. Results were measured at 570 nm and background at 650 nm on a microplate reader (Molecular Devices).

[1] = system: TRAIL-resistant L3.6pl cells (L3.6plTR); test: Cell viability / cell death in TRAIL-resistant cells; type: cell-based
Procedure: as §2

MiaPaCa2 tumors = test: Orthotopic MiaPaCa2 tumor model; type: in vivo, mice; details: for #tumors at 6 wks: JNKi 1 mg/kg oral 5x/week, TRAIL 1 mg/kg i.p. 2x/week, gemcitabine 80 mg/kg 2x/week; for % tumor presence at 6 wks / Kidney mets / Liver mets / Peritoneal mets / Spleen mets: same regimens; for Kidney mets / Liver mets / Peritoneal mets / Spleen mets: at 6 wks
Procedure: Age-matched male swiss nu/nu mice (6-8 weeks old) were injected orthotopically with pancreatic tumor cells. All procedures were performed in accordance with the guidelines of the Institutional Animal Care and Use Committee at The University of Texas MD Anderson Cancer Center (ACDF Protocol #12-12-12631). Animals were anesthetized with isoflurane anesthesia (1%-3% via inhalation), and an incision was made in the left abdominal flank. The spleen was located and extracted, and 1×10^6 pancreatic cells in 50 μL of PBS were injected into the underlying tail of the pancreas. The abdominal wall was closed with sterile absorbable sutures, and wound clips were applied to the skin. Animals were monitored daily and after two weeks of untreated tumor growth randomly assigned to different treatment groups: control (no treatment), JNKi (1 mg/kg) was administered by oral gavage five times per week; gemcitabine (80 mg/kg) or TRAIL (1 mg/kg) was injected intraperitoneally with a 27-G needle two times per week or JNKi and TRAIL together at the dosages indicated above. Weight, tumor growth, and health status were clinically followed for 4 weeks. At day 42, animals were euthanized, and blood and tissues were collected for postmortem analysis.

L3.6pl parental cells = test: Acridine orange/ethidium bromide staining; type: cell-based; details: 50 ng/mL, 24 hours
Excerpt: (§3) According to a protocol adapted from Todaro et al. (supra), attached cells or spheres were washed with PBS, stained with acridine orange/ethidium bromide, and visualized immediately with fluorescent microscopy.

L3.6pl spheres = test: Acridine orange/ethidium bromide staining; type: cell-based; details: 50 ng/mL, 24 hours
Excerpt: as §3

[2] = system: adipose tissue-derived stem cells (ASCs); test: Differentiation assay of ASCs; type: cell-based, human
Procedure: Adipose tissue-derived stem cells were seeded in the following concentrations: adipogenic differentiation, 1×10^4 cells/cm^2; chondrogenic differentiation, 1.6×10^7 cells/cm2; and osteogenic differentiation, 5×10^3 cells/cm^2. After a 2-hour incubation with 20% FBS-containing medium, cells were washed, and the respective differentiation media were added (Invitrogen StemPro differentiation kits). Differentiation media were changed twice a week. After 14 to 21 days, cells were fixed with 4% formaldehyde for 30 minutes and stained with Oil Red O for lipid vesicles (adipogenic differentiation), Alcian Blue for proteoglycans (chondrogenic differentiation), and Alizarin Red S for calcium deposits (osteogenic differentiation) as reported previously. Bai X, Alt E. “Myocardial regeneration potential of adipose tissue-derived stem cells” Biochemical and Biophysical Research Communications. 401 (2010) 321-6.

p-JNK = test: PathScan p-SAPK/JNK sandwich ELISA; type: cell-based; details: L3.6plTR cells vs untreated control
Procedure: Protein lysates were obtained from adherent cells or spheres after 1-hour of incubation with JNKi and/or TRAIL. Protein quantification was performed, and PathScan Sandwich ELISA Antibody Pair (Cell Signaling Technologies) was performed according to the manufacturer's instructions.

IL-8 secretion = test: Human CXCL8/IL-8 ELISA of culture supernatant; type: cell-based
Procedure: Cell culture supernatant was obtained after 24-hour treatments in triplicate. A human CXCL8/IL-8 Quantikine ELISA kit (R&D Systems) was used to measure human IL-8 according to the manufacturer's protocol. An IL-8 standard curve was performed to determine concentrations (in pg of cytokine per μL).

[3] = system: parental pancreatic cancer cells; test: MTT cell viability assay, single agents; type: cell-based; details: JNKi 0.5 μM alone; rhTRAIL 10 ng/mL alone
Procedure: as §2

DcR1 = test: qRT-PCR of TRAIL decoy receptor; type: cell-based; details: vs control samples
Procedure: as §1

DR4 and DR5 = test: qRT-PCR of TRAIL death receptors; type: cell-based; details: vs control samples
Procedure: as §1

[4] = system: CSC-enriched pancreatic cancer spheres; test: MTT viability assay, spheres versus parental cells; type: cell-based; details: 25 ng/mL and 50 ng/mL
Procedure: as §2

[5] = system: CSC-enriched pancreatic cancer spheres; test: Sphere forming assay; type: cell-based; details: high-dose treatment group (control 40%)
Procedure: Sphere-forming medium consisted of MEMα supplemented with L-glutamine, putrescine, insulin (all from Sigma-Aldrich), […] (20 ng/mL), basic fibroblast growth factor (10 ng/mL), and B-27 supplement (Gibco). For first generation, attached cells were trypsinized, washed twice with PBS, and seeded in sphere-forming medium as single cell suspensions with clonal density (5,000-10,000 cells/mL) on ultra-low-attachment plates (Corning). After 7 to 10 days, spheres were harvested by gravitation in a tube, trypsinized, washed twice with PBS, and reseeded as described above for the next higher generation. To quantify sphere-forming ability, cells were prepared as described in the preceding paragraph and seeded in 96-well ultra-low-attachment plates at 500 to 1000 cells per well. Medium was supplemented with 1% methylcellulose to prevent cell-cell attachments. Medium was added or renewed every 3 days, and spheres were quantified at day 10 to 12.

MTT cell viability assay = type: cell-based; details: human, low-dose 0.5 μM or 1.0 μM
Procedure: as §2

[6] = system: adipose tissue-derived stem cells (ASCs); test: MTT proliferation assay of adipose tissue-derived stem cells; type: cell-based, human; details: 10.0 μM or 20.0 μM
Procedure: as §2
For measurement of cell proliferation, cells were seeded into 24-well plates. After 24 hours, cells were washed with PBS, and medium with different dilutions of JNKi was added. Viable cells were then counted daily with a standard trypan blue stain protocol.

Row | Compound | #tumors at 6 wks (MiaPaCa2 tumors) | % tumor presence at 6 wks (MiaPaCa2 tumors) [%] | Kidney mets (MiaPaCa2 tumors) | Liver mets (MiaPaCa2 tumors) | Peritoneal mets (MiaPaCa2 tumors) | Spleen mets (MiaPaCa2 tumors) | differentiation into osteoblasts, chondrocytes, adipocytes [2] | further results
1 | IL-8: interleukin-8 added to cells in combination with TRAIL | – | – | – | – | – | – | – | DcR1 expression (IL-8, CXCR1, DcR1, c-Jun): upregulation of the decoy receptor DcR1; IL-8 and CXCR1 expression (IL-8, CXCR1, DcR1, c-Jun): autostimulated IL-8 and CXCR1 expression; cell viability / apoptosis in combination with TRAIL (L3.6pl cells): neutralized the apoptosis-inducing power of TRAIL; cell viability / apoptosis in combination with TRAIL ([1]; compared to TRAIL alone): neutralized the apoptosis-inducing power of TRAIL
2 | Nc1ccn([C@@H]2O[C@H](CO)[C@@H](O)C2(F)F)c(=O)n1 [GEM, Gemcitabine] | 5/5 | 100 | 0 | 1 | 1 | 3 | – | –
3 | TRAIL: recombinant human TNF-related apoptosis-inducing ligand from R&D Systems | 10/10 | 100 | 0 | 2 | 1 | 0 | functionally unimpaired | apoptosis (L3.6pl parental cells): robust apoptosis; viability of spheres (L3.6pl spheres): almost entirely viable; p-JNK levels (p-JNK): increased p-JNK levels; cell death ([1]; TRAIL doses up to 100 ng/mL): detectable cell death only in small numbers of cells; TRAIL level at peak IL-8 secretion (IL-8 secretion; Panc1 cells, 24 hours): 50 ng/mL; IL-8 secretion (IL-8 secretion; TRAIL with or without JNKi): upregulates IL-8 secretion; IL-8 production (IL-8 secretion; increasing doses of TRAIL, 24 hours): increased dose-dependently; cell viability [3]: only modest effects; expression of DcR1 (DcR1): increased the expression of the decoy receptor DcR1; expression of DR4 and DR5 (DR4 and DR5): reduced the presence of the apoptosis receptors DR4 and DR5; resistance of spheres to TRAIL-induced cell death vs parental cells [4]: significantly more resistant
4 | Oc1c2ccccc2c2c3c(cccc13)N=N2 [JNKi, SP600125] | 4/4 | 100 | 0 | 1 | 0 | 1 | functionally unimpaired | spheres bigger than 150 μm in diameter [5]: 0%; viability at 24 h (MTT cell viability assay; L3.6pl cells, 24 hours): 80%; viability at 24 h (MTT cell viability assay; MiaPaCa2 cells): 80%; cell proliferative capacity, lower compared to untreated ASCs [6]: 20%
